Drawing on publication PMC6333238, “The biosynthetic implications of late-stage condensation domain selectivity during glycopeptide antibiotic biosynthesis” (Chemical Science, 2018), this text covers Km for 1 compound.

What all share (assay): coupled PPi-release A-domain assay (PPi-PFK/aldolase/TPI/GDH, NADH)
Common to all, as to format: biochemical
Holding throughout (conditions): apo-PCP form, 0.5 mM ATP, 1 mM MgCl2, pH 7.4, 0.1 mM EDTA, enzyme 0.5 μM

The target of one assay is T1, Tcp12_ΔTE2 (Actinoplanes teichomyceticus, UniProt Q70AZ6).
T1 construct: gene tcp12; with MbtH-like protein Tcp17
T1 sequence (Q70AZ6 entry or part of it, stated change not applied): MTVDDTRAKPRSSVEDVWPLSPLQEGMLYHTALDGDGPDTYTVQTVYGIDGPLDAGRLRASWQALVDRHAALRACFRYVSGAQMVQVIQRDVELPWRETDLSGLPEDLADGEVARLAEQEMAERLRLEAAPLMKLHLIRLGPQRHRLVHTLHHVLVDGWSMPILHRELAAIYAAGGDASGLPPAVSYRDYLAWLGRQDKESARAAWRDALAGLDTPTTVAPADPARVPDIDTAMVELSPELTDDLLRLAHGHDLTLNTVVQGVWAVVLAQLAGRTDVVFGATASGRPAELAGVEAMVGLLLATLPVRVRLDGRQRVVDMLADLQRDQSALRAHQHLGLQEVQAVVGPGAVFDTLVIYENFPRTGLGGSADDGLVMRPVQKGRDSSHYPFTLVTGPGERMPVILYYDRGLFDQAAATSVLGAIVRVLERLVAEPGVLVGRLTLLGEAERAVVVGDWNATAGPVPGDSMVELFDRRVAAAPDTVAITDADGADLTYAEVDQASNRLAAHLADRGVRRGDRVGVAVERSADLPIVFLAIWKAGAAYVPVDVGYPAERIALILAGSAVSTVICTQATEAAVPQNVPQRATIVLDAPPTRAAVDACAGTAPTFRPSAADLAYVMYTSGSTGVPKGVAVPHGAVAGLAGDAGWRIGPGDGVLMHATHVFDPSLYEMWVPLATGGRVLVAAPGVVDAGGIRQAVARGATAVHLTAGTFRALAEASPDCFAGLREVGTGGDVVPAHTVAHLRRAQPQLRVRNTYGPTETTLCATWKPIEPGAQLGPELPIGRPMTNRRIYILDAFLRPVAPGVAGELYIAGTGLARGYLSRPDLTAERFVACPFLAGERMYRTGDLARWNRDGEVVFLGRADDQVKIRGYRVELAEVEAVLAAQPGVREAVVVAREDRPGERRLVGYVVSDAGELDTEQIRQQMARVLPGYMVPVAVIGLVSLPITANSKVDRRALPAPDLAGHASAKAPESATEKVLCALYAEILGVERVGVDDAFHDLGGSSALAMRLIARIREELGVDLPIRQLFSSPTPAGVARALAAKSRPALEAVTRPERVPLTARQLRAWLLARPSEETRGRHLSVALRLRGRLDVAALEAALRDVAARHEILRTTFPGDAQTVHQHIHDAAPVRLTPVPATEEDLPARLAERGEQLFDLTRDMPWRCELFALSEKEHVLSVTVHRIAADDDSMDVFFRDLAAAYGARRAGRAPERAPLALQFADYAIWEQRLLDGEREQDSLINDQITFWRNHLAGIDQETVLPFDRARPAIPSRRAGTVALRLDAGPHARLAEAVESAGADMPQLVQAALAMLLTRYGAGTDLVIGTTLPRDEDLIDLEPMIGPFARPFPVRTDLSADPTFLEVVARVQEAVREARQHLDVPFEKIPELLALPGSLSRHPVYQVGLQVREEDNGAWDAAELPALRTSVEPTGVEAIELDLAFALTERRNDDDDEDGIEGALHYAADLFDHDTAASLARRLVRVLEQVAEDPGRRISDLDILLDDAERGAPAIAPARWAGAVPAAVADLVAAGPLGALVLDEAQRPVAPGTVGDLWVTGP
T1 sequence (Q70AZ1 entry or part of it, stated change not applied, further chain): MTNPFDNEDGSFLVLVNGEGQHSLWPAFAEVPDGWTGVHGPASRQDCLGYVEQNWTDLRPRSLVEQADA
An excerpt: coupled PPi-release A-domain assay (PPi-PFK/aldolase/TPI/GDH, NADH) on Tcp12_ΔTE2

Another assay concerns the target T2, Tcp12_ΔTE3 (Actinoplanes teichomyceticus, UniProt Q70AZ6).
T2 construct: gene tcp12; with MbtH-like protein Tcp17
An excerpt:
coupled PPi-release A-domain assay (PPi-PFK/aldolase/TPI/GDH, NADH) on Tcp12_ΔTE3

The target in a further assay is T3, Tcp12_ΔTE1 (Actinoplanes teichomyceticus, UniProt Q70AZ6).
T3 construct: gene tcp12; with MbtH-like protein Tcp17
T3 sequence (Q70AZ6 entry or part of it, stated change not applied): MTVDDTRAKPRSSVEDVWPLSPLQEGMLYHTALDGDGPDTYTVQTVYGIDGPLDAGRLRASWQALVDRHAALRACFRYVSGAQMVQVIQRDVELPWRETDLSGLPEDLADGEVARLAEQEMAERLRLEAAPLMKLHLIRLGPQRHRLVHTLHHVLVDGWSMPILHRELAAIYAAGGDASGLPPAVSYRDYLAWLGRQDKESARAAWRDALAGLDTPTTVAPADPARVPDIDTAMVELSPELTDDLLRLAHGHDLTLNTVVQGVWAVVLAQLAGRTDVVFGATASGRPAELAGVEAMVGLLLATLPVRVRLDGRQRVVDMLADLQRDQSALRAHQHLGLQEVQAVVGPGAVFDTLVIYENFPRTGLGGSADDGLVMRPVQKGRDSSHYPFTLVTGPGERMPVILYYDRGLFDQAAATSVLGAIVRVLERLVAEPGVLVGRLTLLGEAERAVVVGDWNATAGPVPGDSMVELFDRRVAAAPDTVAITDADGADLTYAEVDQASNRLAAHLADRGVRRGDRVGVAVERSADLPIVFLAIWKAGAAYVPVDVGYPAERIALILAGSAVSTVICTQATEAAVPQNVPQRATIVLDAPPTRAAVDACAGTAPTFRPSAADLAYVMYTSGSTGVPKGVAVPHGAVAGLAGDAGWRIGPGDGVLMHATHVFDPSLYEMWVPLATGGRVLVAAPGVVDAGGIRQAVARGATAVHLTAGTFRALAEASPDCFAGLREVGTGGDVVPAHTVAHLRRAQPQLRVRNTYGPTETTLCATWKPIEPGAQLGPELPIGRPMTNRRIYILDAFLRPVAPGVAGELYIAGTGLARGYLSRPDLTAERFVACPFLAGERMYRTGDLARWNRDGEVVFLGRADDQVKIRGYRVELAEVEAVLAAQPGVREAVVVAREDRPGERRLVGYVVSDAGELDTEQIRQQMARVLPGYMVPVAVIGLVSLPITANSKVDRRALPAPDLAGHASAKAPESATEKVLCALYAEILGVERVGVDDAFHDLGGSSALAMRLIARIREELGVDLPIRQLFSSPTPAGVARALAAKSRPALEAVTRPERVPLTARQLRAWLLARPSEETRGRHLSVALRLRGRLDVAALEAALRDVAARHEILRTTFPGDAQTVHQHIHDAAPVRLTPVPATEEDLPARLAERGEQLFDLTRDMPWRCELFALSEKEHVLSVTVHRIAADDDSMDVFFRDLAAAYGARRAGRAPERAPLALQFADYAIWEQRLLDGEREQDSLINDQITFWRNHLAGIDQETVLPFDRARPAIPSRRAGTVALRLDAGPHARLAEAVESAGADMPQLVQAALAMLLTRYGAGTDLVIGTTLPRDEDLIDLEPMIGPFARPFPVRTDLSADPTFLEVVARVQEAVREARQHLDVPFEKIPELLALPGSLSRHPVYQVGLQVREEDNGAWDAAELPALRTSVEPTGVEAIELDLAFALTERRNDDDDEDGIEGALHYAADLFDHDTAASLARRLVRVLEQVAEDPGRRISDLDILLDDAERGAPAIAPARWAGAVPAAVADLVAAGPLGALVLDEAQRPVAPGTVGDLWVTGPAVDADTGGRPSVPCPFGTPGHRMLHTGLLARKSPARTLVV
T3 sequence (Q70AZ1 entry or part of it, stated change not applied, further chain): as the sequence (Q70AZ1 entry or part of it, stated change not applied, further chain) above
The text has this: coupled PPi-release A-domain assay (PPi-PFK/aldolase/TPI/GDH, NADH) on Tcp12_ΔTE1

SMILES strings stand for the structures.

T2 sequence (Q70AZ6 entry or part of it, stated change not applied): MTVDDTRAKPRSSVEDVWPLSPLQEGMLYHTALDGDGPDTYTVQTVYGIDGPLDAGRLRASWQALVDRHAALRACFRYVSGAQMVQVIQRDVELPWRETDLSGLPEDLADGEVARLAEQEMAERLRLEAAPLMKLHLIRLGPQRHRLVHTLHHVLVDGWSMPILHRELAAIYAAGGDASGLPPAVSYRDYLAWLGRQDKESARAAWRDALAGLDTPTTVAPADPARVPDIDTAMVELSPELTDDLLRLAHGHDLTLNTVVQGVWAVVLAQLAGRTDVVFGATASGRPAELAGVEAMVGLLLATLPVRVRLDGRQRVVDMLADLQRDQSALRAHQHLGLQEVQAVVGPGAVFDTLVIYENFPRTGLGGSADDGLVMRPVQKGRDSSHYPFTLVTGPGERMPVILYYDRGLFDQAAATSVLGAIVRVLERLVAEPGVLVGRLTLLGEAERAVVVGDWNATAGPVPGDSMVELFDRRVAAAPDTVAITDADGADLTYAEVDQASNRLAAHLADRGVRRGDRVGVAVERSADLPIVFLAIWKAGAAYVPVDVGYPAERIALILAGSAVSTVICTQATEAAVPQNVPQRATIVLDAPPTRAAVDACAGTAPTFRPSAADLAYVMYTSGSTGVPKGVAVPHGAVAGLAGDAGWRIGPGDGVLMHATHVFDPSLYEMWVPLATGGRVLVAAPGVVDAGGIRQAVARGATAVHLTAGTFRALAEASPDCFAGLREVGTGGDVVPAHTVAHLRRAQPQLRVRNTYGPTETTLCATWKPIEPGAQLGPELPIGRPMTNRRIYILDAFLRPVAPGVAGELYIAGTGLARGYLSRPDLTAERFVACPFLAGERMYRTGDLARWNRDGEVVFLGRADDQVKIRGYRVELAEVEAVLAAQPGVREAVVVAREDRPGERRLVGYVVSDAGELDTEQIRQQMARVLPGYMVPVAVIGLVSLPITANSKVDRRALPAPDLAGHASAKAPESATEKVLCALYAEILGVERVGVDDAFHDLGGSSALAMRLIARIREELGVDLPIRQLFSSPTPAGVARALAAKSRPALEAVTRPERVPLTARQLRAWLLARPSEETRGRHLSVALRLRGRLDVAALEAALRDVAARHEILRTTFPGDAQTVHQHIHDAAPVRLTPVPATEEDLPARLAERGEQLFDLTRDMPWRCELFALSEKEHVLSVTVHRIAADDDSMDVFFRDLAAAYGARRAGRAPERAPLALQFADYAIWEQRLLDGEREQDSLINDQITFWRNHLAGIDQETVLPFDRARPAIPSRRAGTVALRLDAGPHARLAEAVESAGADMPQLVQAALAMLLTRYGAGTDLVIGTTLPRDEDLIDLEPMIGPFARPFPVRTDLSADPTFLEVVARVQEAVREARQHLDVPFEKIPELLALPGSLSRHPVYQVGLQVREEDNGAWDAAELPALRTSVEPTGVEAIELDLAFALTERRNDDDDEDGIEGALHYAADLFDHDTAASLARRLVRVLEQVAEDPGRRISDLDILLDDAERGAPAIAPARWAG
T2 sequence (Q70AZ1 entry or part of it, stated change not applied, further chain): as the sequence (Q70AZ1 entry or part of it, stated change not applied, further chain) above

Turning to `N[C@H](C(=O)O)c1cc(O)cc(O)c1` [Dpg, (S)-3,5-dihydroxyphenylglycine], the Km was found to be 10 ± 0.9 µM at Tcp12_ΔTE2, 8 ± 0.6 µM at Tcp12_ΔTE3 and 6 ± 0.6 µM at Tcp12_ΔTE1.
